Experimental findings from patent US6939860B2, “Composition and method for treatment of neoplastic diseases associated with elevated matrix metalloproteinase activities using catechin compounds” (priority 2002, dated 2005) are described below.

In experiment [1] the test system is Human Breast Cancer Cells MDA-MB 231. The experiment is described as follows: Cell proliferation study (MTT stain), breast cancer cells. The following applies: MDA-MB 231, 4 days.
Method: To study the effects of catechins and dietary composition on cell proliferation of human cancer cells, various human cancer cell lines were cultured in 24 well plates using the culture conditions specified by ATCC (supplier of cell lines). The cells were generally incubated for 3 to 4 days (before coalescence was reached). The total number of cells in a culture well was determined by staining the cells with vital stain (MTT) followed by the determination of OD of the stain solution. MTT only stain the dead cells and the amount of stain uptake correlates with the number of dead cells in the culture. Percent inhibition was calculated by comparing the OD of the treatment groups with the OD of the control groups. In these studies, 5×10^4 breast cancer cells (MDAMB 231) were seeded in each of the wells of 24-well plate. […] Plates were incubated in ambient air (without supplemental CO2) for a period of 4 days. At the end of the period, the culture media were withdrawn and the cells in each well were stained with MTT. Excess MTT stain was washed off. The MTT stained cancer cells were dissolved in 1 ml DMSO solution. The optical density (OD) of the solution was determined for each well. The OD for the well was directly proportional to the number of dead cells. The OD of the MTT stained cancer cells that were previously cultured in the absence of EGCGT was used as a reference and was considered as 100. Percent inhibition was calculated by using the formula: % Inhibition=(OD of Reference−OD of the Test Treatment)/OD of Reference×100%.
Another experiment deals with MMP2. Nature of the experiment: Zymogram of culture media from Matrigel invasion assay, MMP2. The experiment is classed as cell-based, Human. As for the experimental part:
(§1) The media (25-30 μl) from Matrigel Invasion studies was applied to Novex zymogram gels (Invitrogen). The gel plates were developed and stained as recommended by the manufacturer. The matrix-metalloproteinases (MMPs) bands were identified on the basis of their known molecular weights.
(§2) The media from various treatments in the Matrigel Invasion assay (Example 4) were applied to Novex Zymogram Gel (Invitrogen). The plates were developed and stained as recommended by the manufacturer. The matrix metalloproteinases (MMPs) bands were identified on the basis of their known molecular weights (FIG. 6).

The subject of a further experiment is MMP9. The experiment is described as follows: Zymogram of culture media from Matrigel invasion assay, MMP9. The experiment is classed as cell-based, Human. The note with it: media of MDA MB 231 Matrigel invasion assay. As for the experimental part: as §1, §2
Experiment [2] concerns Human breast cancer cells (MDA MB 231). Nature of the experiment: Matrigel invasion assay, breast cancer cells. The experiment is classed as cell-based. The following applies: EGCG 50 μg/ml alone, MDA MB 231, 18 hours. As for the experimental part: The Matrigel Invasion studies were conducted using Matrigel (Becton Dickinson) inserts in compatible 24 well plates. This assay is a reliable assay for evaluating cancer metastasis.
Human fibroblast cells were seeded and grown in the 24-well plates using culture media containing ˜10% serum. When the fibroblasts reached coalescence, the culture media with serum was withdrawn and replaced with fresh media without serum. A combination of catechin compounds plus dietary composition were added to the media without serum and human cancer cells were seeded on the upper surface of the Matrigel inserts.
After 18 hours, the media were withdrawn. Some media were saved for zymogram studies. The cells on the upper surface of the inserts were gently scrubbed away with cotton swab. The cells that had penetrated the Matrigel membrane and had migrated into the lower surface of the Matrigel were stained with Quick Stain and were counted under a microscope.
The general procedure for Matrigel Invasion Assay has been described above. In this assay, human breast cancer cells (5×10^4) were seeded on each insert. Various supplements were added to Leibovitz's media. The plates were incubated in an incubator in ambient air without supplemental CO2.

As for `O=C(O[C@@H]1Cc2c(O)cc(O)cc2O[C@@H]1c1cc(O)c(O)c(O)c1)c1cc(O)c(O)c(O)c1` [EGCG, (−)-epigallocatechin-3-gallate], the “inhibition of cell proliferation” value in experiment [1] (EGCG 10 ug/ml) was “did not inhibit”; in experiment [1] (EGCG 20 μg/ml alone) it was 3%; in experiment [1] (EGCG 50 μg/ml), 34%; in experiment [1] (EGCG 100 μg/ml), 66%; in experiment [1] (EGCG 200 μg/ml), 70%. Besides, the “production of MMP2 (zymogram)” value with MMP2 (EGCG 20 ug/ml, media of MDA MB 231 Matrigel invasion assay) is recorded as “reduced”. Moreover, the “activity of MMP2 (zymogram)” value in the experiment with MMP2 (EGCG 50 μg/ml, media of MDA MB 231 Matrigel invasion assay) is reported as “completely inhibited”; with MMP2 (EGCG 100 ug/ml, media of MDA MB 231 Matrigel invasion assay) it was “completely inhibited”. In the experiment on MMP2 (FIG. 6 legend, concentration not given), the “activity of MMP2 secreted by breast cancer cells (zymogram)” value is on record as “decreases”. In addition, in the experiment with MMP9 (EGCG 20 ug/ml), the “production of MMP9 (zymogram)” value is listed as “completely inhibited”. In addition, the “activity of MMP9 (zymogram)” value in the experiment on MMP9 (EGCG 50 μg/ml) and with MMP9 (EGCG 100 ug/ml) was “completely inhibited” each time. Also, the “inhibition of Matrigel invasion” value in experiment [2] is listed as roughly 100%.
